How the values were obtained:
Assay in all cases: relative viability (nuclei count vs DMSO), 5 days (fraction); higher = more cells survive
Idelalisib + Crizotinib = compound: CC[C@H](Nc1ncnc2[nH]cnc12)c1nc2cccc(F)c2c(=O)n1-c1ccccc1 [Idelalisib] + C[C@@H](Oc1cc(-c2cnn(C3CCNCC3)c2)cnc1N)c1c(Cl)ccc(F)c1Cl [Crizotinib] (partner 1 µM)
In short: (§1)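 The day after seeding in 1536-well plates, lung cancer cell lines were treated by pin tool with a single drug, or with a fixed anchor-drug dose together with five library-drug doses (not always all listed) in √10 steps. After 5 days, a combined fix-and-stain solution (final 0.05% Triton X-100, 1% formaldehyde, 1 ug/ml Hoechst) was added. Nuclei counted on 4× images gave relative viability as treated counts over vehicle counts, reported as the median of duplicate plates.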

Idelalisib + Vorinostat = compound: CC[C@H](Nc1ncnc2[nH]cnc12)c1nc2cccc(F)c2c(=O)n1-c1ccccc1 [Idelalisib] + O=C(CCCCCCC(=O)Nc1ccccc1)NO [Vorinostat] (partner 1 µM)
In short: as §1

Pemetrexed + Palbociclib = compound: Nc1nc2[nH]cc(CCc3ccc(C(=O)N[C@@H](CCC(=O)O)C(=O)O)cc3)c2c(=O)[nH]1 [Pemetrexed] + CC(=O)c1c(C)c2cnc(Nc3ccc(N4CCNCC4)cn3)nc2n(C2CCCC2)c1=O [Palbociclib] (partner 0.5 µM)
In short: as §1

Pemetrexed + Decitabine = compound: Nc1nc2[nH]cc(CCc3ccc(C(=O)N[C@@H](CCC(=O)O)C(=O)O)cc3)c2c(=O)[nH]1 [Pemetrexed] + Nc1ncn([C@H]2C[C@H](O)[C@@H](CO)O2)c(=O)n1 [Decitabine] (partner 2 µM)
In short: as §1

Cell Line	relative viability (Idelalisib + Crizotinib; first compound 0.04 µM)	relative viability (Idelalisib + Crizotinib; first compound 0.1265 µM)	relative viability (Idelalisib + Crizotinib; first compound 0.4 µM)	relative viability (Idelalisib + Crizotinib; first compound 1.265 µM)	relative viability (Idelalisib + Crizotinib; first compound 4 µM)	relative viability (Idelalisib + Vorinostat; first compound 0.04 µM)	relative viability (Idelalisib + Vorinostat; first compound 0.1265 µM)	relative viability (Idelalisib + Vorinostat; first compound 0.4 µM)	relative viability (Idelalisib + Vorinostat; first compound 1.265 µM)	relative viability (Idelalisib + Vorinostat; first compound 4 µM)	relative viability (Pemetrexed + Palbociclib; first compound 0.002 µM)	relative viability (Pemetrexed + Palbociclib; first compound 0.006325 µM)	relative viability (Pemetrexed + Palbociclib; first compound 0.02 µM)	relative viability (Pemetrexed + Palbociclib; first compound 0.06325 µM)	relative viability (Pemetrexed + Palbociclib; first compound 0.2 µM)	relative viability (Pemetrexed + Decitabine; first compound 0.002 µM)	relative viability (Pemetrexed + Decitabine; first compound 0.006325 µM)	relative viability (Pemetrexed + Decitabine; first compound 0.02 µM)	relative viability (Pemetrexed + Decitabine; first compound 0.06325 µM)	relative viability (Pemetrexed + Decitabine; first compound 0.2 µM)
NCI-H2009	1.02	1.04	1.03	0.991	1.01	0.751	0.751	0.663	0.688	0.72	0.263	0.205	0.194	0.22	0.203	0.372	0.307	0.416	0.355	0.342
NCI-H2023	0.63	0.662	0.487	0.579	0.54	0.909	0.702	0.469	0.375	0.682	0.347	0.387	0.384	0.323	0.125	0.181	0.206	0.246	0.173	0.125
NCI-H2085	0.86	0.897	0.761	0.736	0.81	0.794	0.788	0.702	0.614	0.484	0.457	0.458	0.495	0.471	0.464	0.584	0.513	0.53	0.527	0.642
NCI-H2087	0.894	0.911	0.901	1.1	0.93	0.592	0.667	0.614	0.781	0.204	0.161	0.221	0.245	0.217	0.214	0.268	0.237	0.332	0.238	0.262
NCI-H2126	1.04	1	0.967	1.03	1.02	0.932	0.865	0.464	0.861	0.671	0.363	0.327	0.409	0.339	0.359	0.55	0.588	0.569	0.608	0.567
NCI-H2170	1.23	1.18	1.07	1.07	0.983	0.732	0.805	0.761	0.716	0.669	0.371	0.396	0.435	0.416	0.378	0.436	0.48	0.458	0.462	0.459
NCI-H2347	0.586	0.734	0.64	0.851	0.666	0.639	0.572	0.511	0.624	0.403	0.448	0.413	0.505	0.4	0.388	0.604	0.594	0.657	0.619	0.49
NCI-H2405	0.846	0.814	0.708	0.76	0.692	1.2	1.05	0.908	1.04	1.06	0.524	0.531	0.535	0.514	0.48	0.717	0.649	0.691	0.687	0.685
NCI-H3122	0.296	0.28	0.3	0.283	0.289	1.01	1.07	0.933	1.02	0.579	0.164	0.192	0.206	0.222	0.165	0.452	0.379	0.413	0.417	0.305
PC-3 [JPC-3]	1	1.04	0.94	0.98	0.881	1.04	0.952	0.841	0.86	0.747	0.483	0.54	0.536	0.578	0.503	0.765	0.845	0.956	0.837	0.857
PC-14	0.821	0.947	0.882	0.905	0.908	0.901	0.709	0.633	0.363	0.68	0.578	0.501	0.471	0.185	0.118	0.211	0.217	0.301	0.0896	0.0739
RERF-LC-KJ	0.94	0.845	0.847	0.785	0.861	0.826	0.754	0.725	0.697	0.512	0.877	1.08	1.14	0.976	0.773	0.609	0.753	0.801	0.721	0.415
SK-LU-1	0.923	1.06	0.826	0.777	0.826	0.739	0.735	0.645	0.813	0.768	0.54	0.379	0.391	0.413	0.375	0.617	0.659	0.699	0.642	0.603
SK-MES-1	1.06	0.959	0.888	0.876	0.789	1.19	1.06	0.974	0.395	1.04	0.316	0.305	0.353	0.33	0.327	0.369	0.331	0.408	0.421	0.367
SW 1573	0.794	0.682	0.836	0.832	0.833	0.907	0.629	0.7	0.556	0.49	0.352	0.423	0.435	0.413	0.235	0.577	0.662	0.615	0.53	0.525
